{"source": "patent US8815881B2", "about": "(Hoffmann-La Roche Inc., priority 2010, dated 2014)"}
{"target": "endogenous cellular BACE2 in the Ins1e rat cell line (Rattus norvegicus (Rat), UniProt Q6IE75)", "sequence (Q6IE75 63-514)": "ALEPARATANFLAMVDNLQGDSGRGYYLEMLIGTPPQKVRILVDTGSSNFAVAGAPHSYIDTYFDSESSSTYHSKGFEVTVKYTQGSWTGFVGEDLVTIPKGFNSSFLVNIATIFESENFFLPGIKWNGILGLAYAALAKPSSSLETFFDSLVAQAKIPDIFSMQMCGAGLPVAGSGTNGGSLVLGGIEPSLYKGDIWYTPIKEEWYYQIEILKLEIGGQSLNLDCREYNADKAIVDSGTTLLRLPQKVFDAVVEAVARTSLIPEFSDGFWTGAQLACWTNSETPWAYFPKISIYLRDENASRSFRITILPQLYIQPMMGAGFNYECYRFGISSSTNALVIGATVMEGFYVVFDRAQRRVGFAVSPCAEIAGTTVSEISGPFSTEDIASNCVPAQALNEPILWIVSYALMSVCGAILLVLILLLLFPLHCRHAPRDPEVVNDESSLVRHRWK", "assay": "Assay for BACE inhibition by measuring cellular TMEM27 cleavage (ELISA of shed hTMEM27 from INS-TMEM27 cells)", "assay_type": "cell-based", "conditions": "assay a): cellular TMEM27 cleavage, INS-TMEM27 cells (superscript a)", "procedure,_shortened": "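INS1e-derived cells with doxycycline-inducible (TetOn) full-length human TMEM27 get inhibitor 2 h before 500 ng/ml doxycycline, then 46 h further culture at 37 °C. Shed TMEM27 in supernatant measured by sandwich ELISA (anti-extracellular-domain antibodies); EC50 from concentration-response curve fit.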", "units": {"IC50": "nM"}}
{"molecule": "CN1C(=O)C(C)(C)[C@@](C)(c2cc(Nc3ccc(F)cc3F)ccc2F)N=C1N", "note": "[Example 81, (S)-2-Amino-6-(5-(2,4-difluorophenylamino)-2-fluorophenyl)-3,5,5,6-tetramethyl-5,6-dihydropyrimidin-4(3H)-one]", "IC50": 223}
{"molecule": "CN1C(=O)C(C)(C)[C@@](C)(c2cc(NC3CCOCC3)ccc2F)N=C1N", "note": "[Example 50, (S)-2-Amino-6-[2-fluoro-5-(tetrahydro-pyran-4-ylamino)-phenyl]-3,5,5,6-tetramethyl-5,6-dihydro-3H-pyrimidin-4-one]", "IC50": 21.8}
{"molecule": "CN1C(=O)C(C)(C)[C@@](C)(c2cc(NC(=O)C(C)(O)c3ccc(Cl)cc3)ccc2F)N=C1N", "note": "(stereo partly drawn) [Example 141, N-[3-((S)-2-Amino-1,4,5,5-tetramethyl-6-oxo-1,4,5,6-tetrahydro-pyrimidin-4-yl)-4-fluoro-phenyl]-2-(4-chloro-phenyl)-2-hydroxy-propionamide]", "IC50": 332}
{"molecule": "CN1C(=O)C(C)(C)[C@@](C)(c2cc(NC[C@@H]3C[C@H]3c3ccccc3)ccc2F)N=C1N", "note": "[Example 97, (S)-2-Amino-6-{2-fluoro-5-[((1R,2R)-2-phenyl-cyclopropylmethyl)-amino]-phenyl}-3,5,5,6-tetramethyl-5,6-dihydro-3H-pyrimidin-4-one]", "IC50": 242}
{"molecule": "COc1ccc(F)cc1Nc1ccc(F)c([C@@]2(C)N=C(N)N(C)C(=O)C2(C)C)c1", "note": "[Example 84, (S)-2-Amino-6-(2-fluoro-5-(5-fluoro-2-methoxyphenylamino)phenyl)-3,5,5,6-tetramethyl-5,6-dihydropyrimidin-4(3H)-one]", "IC50": 69}
{"molecule": "COc1ccc(C(F)(F)F)cc1Nc1ccc(F)c([C@@]2(C)N=C(N)N(C)C(=O)C2(C)C)c1", "note": "[Example 121, (S)-2-Amino-6-(2-fluoro-5-(2-methoxy-5-(trifluoromethyl)phenylamino)phenyl)-3,5,5,6-tetramethyl-5,6-dihydropyrimidin-4(3H)-one]", "IC50": 9}
{"molecule": "Cc1cc(Nc2ccc(F)c([C@@]3(C)N=C(N)N(C)C(=O)C3(C)C)c2)ccc1C#N", "note": "[Example 149, (S)-4-(3-(2-Amino-1,4,5,5-tetramethyl-6-oxo-1,4,5,6-tetrahydropyrimidin-4-yl)-4-fluorophenylamino)-2-methylbenzonitrile]", "IC50": 81}
{"molecule": "CC(=O)N1CC(Nc2ccc(F)c([C@@]3(C)N=C(N)N(C)C(=O)C3(C)C)c2)c2ccc(F)cc21", "note": "(stereo partly drawn) [Example 137, (S)-6-[5-(1-Acetyl-6-fluoro-2,3-dihydro-1H-indol-3-ylamino)-2-fluoro-phenyl]-2-amino-3,5,5,6-tetramethyl-5,6-dihydro-3H-pyrimidin-4-one]", "IC50": 124}
{"molecule": "CN1C(=O)C(C)(C)[C@@](C)(c2cc(NC(=O)C3CC3)ccc2F)N=C1N", "note": "[Example 17, (S)—N-(3-(2-Amino-1,4,5,5-tetramethyl-6-oxo-1,4,5,6-tetrahydropyrimidin-4-yl)-4-fluorophenyl)cyclopropanecarboxamide]", "IC50": 360}
{"molecule": "CN1C(=O)C(C)(C)[C@@](C)(c2cc(NC(=O)CC3CC3)ccc2F)N=C1N", "note": "[Example 28, (S)—N-(3-(2-amino-1,4,5,5-tetramethyl-6-oxo-1,4,5,6-tetrahydropyrimidin-4-yl)-4-fluorophenyl)-2-cyclopropylacetamide]", "IC50": 43}
{"molecule": "CN1C(=O)C(C)(C)[C@@](C)(c2cc(NC3COc4ccccc43)ccc2F)N=C1N", "note": "(stereo partly drawn) [Example 51, (6S)-2-amino-6-(5-(2,3-dihydrobenzofuran-3-ylamino)-2-fluorophenyl)-3,5,5,6-tetramethyl-5,6-dihydropyrimidin-4(3H)-one]", "IC50": 73}
{"molecule": "COC(F)(C(=O)Nc1ccc(F)c([C@@]2(C)N=C(N)N(C)C(=O)C2(C)C)c1)C(F)(F)F", "note": "(stereo partly drawn) [Example 20, N-(3-((S)-2-Amino-1,4,5,5-tetramethyl-6-oxo-1,4,5,6-tetrahydropyrimidin-4-yl)-4-fluorophenyl)-2,3,3,3-tetrafluoro-2-methoxypropanamide]", "IC50": 66}
{"molecule": "CN1C(=O)C(C)(C)[C@@](C)(c2cc(Nc3cccc4c3OC(C)(C)C4)ccc2F)N=C1N", "note": "[Example 156, (S)-2-Amino-6-(5-(2,2-dimethyl-2,3-dihydrobenzofuran-7-ylamino)-2-fluorophenyl)-3,5,5,6-tetramethyl-5,6-dihydropyrimidin-4(3H)-one]", "IC50": 1210}
{"molecule": "CN1C(=O)C(C)(C)[C@@](C)(c2cc(Nc3ccc(C#N)cc3F)ccc2F)N=C1N", "note": "[Example 152, (S)-4-(3-(2-Amino-1,4,5,5-tetramethyl-6-oxo-1,4,5,6-tetrahydropyrimidin-4-yl)-4-fluorophenylamino)-3-fluorobenzonitrile]", "IC50": 2}
{"molecule": "CC(Nc1ccc(F)c([C@@]2(C)N=C(N)N(C)C(=O)C2(C)C)c1)c1ccccc1", "note": "(stereo partly drawn) [Example 38, (S)-2-Amino-6-[2-fluoro-5-(1-phenyl-ethylamino)-phenyl]-3,5,5,6-tetramethyl-5,6-dihydro-3H-pyrimidin-4-one]", "IC50": 48}
{"molecule": "CN1C(=O)C(C)(C)[C@@](C)(c2cc(Nc3ccccc3OC(F)(F)F)ccc2F)N=C1N", "note": "[Example 74, (S)-2-Amino-6-(2-fluoro-5-(2-(trifluoromethoxy)phenylamino)phenyl)-3,5,5,6-tetramethyl-5,6-dihydropyrimidin-4(3H)-one]", "IC50": 76}
{"molecule": "COc1ccc(Nc2ccc(F)c([C@@]3(C)N=C(N)N(C)C(=O)C3(C)C)c2)c(OC)c1", "note": "[Example 108, (S)-2-Amino-6-(5-(2,4-dimethoxyphenylamino)-2-fluorophenyl)-3,5,5,6-tetramethyl-5,6-dihydropyrimidin-4(3H)-one]", "IC50": 178}
{"molecule": "CN1C(=O)C(C)(C)[C@@](C)(c2cc(NCC(F)(F)F)ccc2F)N=C1N", "note": "[Example 75, (S)-2-Amino-6-(2-fluoro-5-(2,2,2-trifluoroethylamino)phenyl)-3,5,5,6-tetramethyl-5,6-dihydropyrimidin-4(3H)-one]", "IC50": 12}
{"molecule": "COc1ccc(C(=O)O)cc1Nc1ccc(F)c([C@@]2(C)N=C(N)N(C)C(=O)C2(C)C)c1", "note": "[Example 129, (S)-3-(3-(2-amino-1,4,5,5-tetramethyl-6-oxo-1,4,5,6-tetrahydropyrimidin-4-yl)-4-fluorophenylamino)-4-methoxybenzoic acid]", "IC50": 3050}
{"molecule": "COc1cccc2c1CCC2Nc1ccc(F)c([C@@]2(C)N=C(N)N(C)C(=O)C2(C)C)c1", "note": "(stereo partly drawn) [Example 47, (S)-2-Amino-6-[2-fluoro-5-(4-methoxy-indan-1-ylamino)-phenyl]-3,5,5,6-tetramethyl-5,6-dihydro-3H-pyrimidin-4-one]", "IC50": 217}
{"molecule": "COC(=O)c1ccc(Nc2ccc(F)c([C@@]3(C)N=C(N)N(C)C(=O)C3(C)C)c2)c(OC)c1", "note": "[Example 123, (S)-Methyl-4-(3-(2-amino-1,4,5,5-tetramethyl-6-oxo-1,4,5,6-tetrahydropyrimidin-4-yl)-4-fluorophenylamino)-3-methoxybenzoate]", "IC50": 46}
{"molecule": "CN1C(=O)C(C)(C)[C@@](C)(c2cc(NC(=O)C(C)(O)c3ccccc3)ccc2F)N=C1N", "note": "(stereo partly drawn) [Example 139, N-[3-((S)-2-Amino-1,4,5,5-tetramethyl-6-oxo-1,4,5,6-tetrahydro-pyrimidin-4-yl)-4-fluoro-phenyl]-2-hydroxy-2-phenyl-propionamide]", "IC50": 31}
{"molecule": "CN1C(=O)C(C)(C)[C@@](C)(c2cc(NC3CS(=O)(=O)c4ccccc43)ccc2F)N=C1N", "note": "(stereo partly drawn) [Example 144, (S)-2-Amino-6-[5-(1,1-dioxo-2,3-dihydro-1H-1-benzo[b]thiophen-3-ylamino)-2-fluoro-phenyl]-3,5,5,6-tetramethyl-5,6-dihydro-3H-pyrimidin-4-one]", "IC50": 3}
{"molecule": "CN1C(=O)C(C)(C)[C@@](C)(c2cc(Nc3ccnn3C)ccc2F)N=C1N", "note": "[Example 36, (S)-2-Amino-6-[2-fluoro-5-(2-methyl-2H-pyrazol-3-ylamino)-phenyl]-3,5,5,6-tetramethyl-5,6-dihydro-3H-pyrimidin-4-one]", "IC50": 535}
{"molecule": "CN1C(=O)C(C)(C)[C@@](C)(c2cc(NC3CCCC3)ccc2F)N=C1N", "note": "[Example 21, (S)-2-Amino-6-(5-(cyclopentylamino)-2-fluorophenyl)-3,5,5,6-tetramethyl-5,6-dihydropyrimidin-4(3H)-one]", "IC50": 14}
{"molecule": "CN1C(=O)C(C)(C)[C@@](C)(c2cc(N[C@H]3CCC[C@@H]3O)ccc2F)N=C1N", "note": "[Example 92, (S)-2-Amino-6-(2-fluoro-5-((1S,2S)-2-hydroxycyclopentylamino)phenyl)-3,5,5,6-tetramethyl-5,6-dihydropyrimidin-4(3H)-one]", "IC50": 279}
{"molecule": "COc1cc(C(F)(F)F)ccc1Nc1ccc(F)c([C@@]2(C)N=C(N)N(C)C(=O)C2(C)C)c1", "note": "[Example 94, (S)-2-Amino-6-[2-fluoro-5-(2-methoxy-(4-trifluoromethyl)-phenylamino)-phenyl]-3,5,5,6-tetramethyl-5,6-dihydro-3H-pyrimidin-4-one]", "IC50": 704}
{"molecule": "CN1C(=O)C(C)(C)[C@@](C)(c2cc(NCC3CCOC3)ccc2F)N=C1N", "note": "(stereo partly drawn) [Example 76, (S)-2-Amino-6-{2-fluoro-5-[(tetrahydro-furan-3-ylmethyl)-amino]phenyl}-3,5,5,6-tetramethyl-5,6-dihydro-3H-pyrimidin-4-one]", "IC50": 15}
{"molecule": "CN1C(=O)C(C)(C)[C@@](C)(c2cc(NCc3cc[nH]n3)ccc2F)N=C1N", "note": "[Example 61, (S)-2-Amino-6-{2-fluoro-5-[(1H-pyrazol-3-ylmethyl)-amino]-phenyl}-3,5,5,6-tetramethyl-5,6-dihydro-3H-pyrimidin-4-one]", "IC50": 59}
